{"source": "PubChem BioAssay (NCI)", "assay_in_all_cases": "DTP human tumour cell line panel, 48 h", "key": {"786-0 renal": {"test_system": "786-0 renal"}, "A498 renal": {"test_system": "A498 renal"}, "A549 NSCLC": {"test_system": "A549 NSCLC"}, "ACHN renal": {"test_system": "ACHN renal"}, "BT-549 breast": {"test_system": "BT-549 breast"}, "CAKI-1 renal": {"test_system": "CAKI-1 renal"}, "CCRF-CEM leukemia": {"test_system": "CCRF-CEM leukemia"}, "COLO 205 colon": {"test_system": "COLO 205 colon"}, "DU-145 prostate": {"test_system": "DU-145 prostate"}, "EKVX NSCLC": {"test_system": "EKVX NSCLC"}, "HCC-2998 colon": {"test_system": "HCC-2998 colon"}, "HCT-116 colon": {"test_system": "HCT-116 colon"}, "HCT-15 colon": {"test_system": "HCT-15 colon"}, "HL-60(TB) leukemia": {"test_system": "HL-60(TB) leukemia"}, "HOP-62 NSCLC": {"test_system": "HOP-62 NSCLC"}, "HOP-92 NSCLC": {"test_system": "HOP-92 NSCLC"}, "HS 578T breast": {"test_system": "HS 578T breast"}, "HT29 colon": {"test_system": "HT29 colon"}, "IGROV1 ovarian": {"test_system": "IGROV1 ovarian"}, "K-562 leukemia": {"test_system": "K-562 leukemia"}, "KM12 colon": {"test_system": "KM12 colon"}, "LOX IMVI melanoma": {"test_system": "LOX IMVI melanoma"}, "M14 melanoma": {"test_system": "M14 melanoma"}, "MALME-3M melanoma": {"test_system": "MALME-3M melanoma"}, "MCF7 breast": {"test_system": "MCF7 breast"}, "MDA-MB-231 breast": {"test_system": "MDA-MB-231 breast"}, "MDA-MB-435": {"test_system": "MDA-MB-435"}, "MDA-N": {"test_system": "MDA-N"}, "MOLT-4 leukemia": {"test_system": "MOLT-4 leukemia"}, "NCI-H226 lung": {"test_system": "NCI-H226 lung"}, "NCI-H23 lung": {"test_system": "NCI-H23 lung"}, "NCI-H460 lung": {"test_system": "NCI-H460 lung"}, "NCI-H522 lung": {"test_system": "NCI-H522 lung"}, "NCI/ADR-RES ovarian": {"test_system": "NCI/ADR-RES ovarian"}, "OVCAR-3 ovarian": {"test_system": "OVCAR-3 ovarian"}, "OVCAR-4 ovarian": {"test_system": "OVCAR-4 ovarian"}, "OVCAR-5 ovarian": {"test_system": "OVCAR-5 ovarian"}, "OVCAR-8 ovarian": {"test_system": "OVCAR-8 ovarian"}, "PC-3 prostate": {"test_system": "PC-3 prostate"}, "RPMI-8226 leukemia": {"test_system": "RPMI-8226 leukemia"}, "RXF 393 renal": {"test_system": "RXF 393 renal"}, "SF-268 CNS": {"test_system": "SF-268 CNS"}, "SF-295 CNS": {"test_system": "SF-295 CNS"}, "SF-539 CNS": {"test_system": "SF-539 CNS"}, "SK-MEL-2 melanoma": {"test_system": "SK-MEL-2 melanoma"}, "SK-MEL-28 melanoma": {"test_system": "SK-MEL-28 melanoma"}, "SK-MEL-5 melanoma": {"test_system": "SK-MEL-5 melanoma"}, "SK-OV-3 ovarian": {"test_system": "SK-OV-3 ovarian"}, "SN12C renal": {"test_system": "SN12C renal"}, "SNB-19 CNS": {"test_system": "SNB-19 CNS"}, "SNB-75 CNS": {"test_system": "SNB-75 CNS"}, "SR leukemia": {"test_system": "SR leukemia"}, "SW-620 colon": {"test_system": "SW-620 colon"}, "T-47D breast": {"test_system": "T-47D breast"}, "TK-10 renal": {"test_system": "TK-10 renal"}, "U251 CNS": {"test_system": "U251 CNS"}, "UACC-257 melanoma": {"test_system": "UACC-257 melanoma"}, "UACC-62 melanoma": {"test_system": "UACC-62 melanoma"}, "UO-31 renal": {"test_system": "UO-31 renal"}}, "note": "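Five compound concentrations were applied to cells in 96-well plates for 48 hours; endpoints were derived by simple linear interpolation of the resulting dose-response curve. The concentration for full growth arrest is given as TGI.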", "data": [{"smiles": "Clc1ccc(COc2ccccc2/C=N/c2c(-c3ccco3)nc3ccccn23)c(Cl)c1", "values": [{"measurement": "TGI", "setting": "786-0 renal", "result": 75.9, "unit": "µM"}, {"measurement": "TGI", "setting": "A498 renal", "result": "> 100", "unit": "µM"}, {"measurement": "TGI", "setting": "A549 NSCLC", "result": "> 100", "unit": "µM"}, {"measurement": "TGI", "setting": "ACHN renal", "result": "> 100", "unit": "µM"}, {"measurement": "TGI", "setting": "BT-549 breast", "result": 89.6, "unit": "µM"}, {"measurement": "TGI", "setting": "CAKI-1 renal", "result": "> 100", "unit": "µM"}, {"measurement": "TGI", "setting": "CCRF-CEM leukemia", "result": 63.7, "unit": "µM"}, {"measurement": "TGI", "setting": "COLO 205 colon", "result": "> 100", "unit": "µM"}, {"measurement": "TGI", "setting": "DU-145 prostate", "result": 76, "unit": "µM"}, {"measurement": "TGI", "setting": "EKVX NSCLC", "result": "> 100", "unit": "µM"}, {"measurement": "TGI", "setting": "HCC-2998 colon", "result": "> 100", "unit": "µM"}, {"measurement": "TGI", "setting": "HCT-116 colon", "result": 36.7, "unit": "µM"}, {"measurement": "TGI", "setting": "HCT-15 colon", "result": 88.3, "unit": "µM"}, {"measurement": "TGI", "setting": "HL-60(TB) leukemia", "result": 71.2, "unit": "µM"}, {"measurement": "TGI", "setting": "HOP-62 NSCLC", "result": "> 100", "unit": "µM"}, {"measurement": "TGI", "setting": "HOP-92 NSCLC", "result": 57.4, "unit": "µM"}, {"measurement": "TGI", "setting": "HS 578T breast", "result": "> 100", "unit": "µM"}, {"measurement": "TGI", "setting": "HT29 colon", "result": "> 100", "unit": "µM"}, {"measurement": "TGI", "setting": "IGROV1 ovarian", "result": "> 100", "unit": "µM"}, {"measurement": "TGI", "setting": "K-562 leukemia", "result": "> 100", "unit": "µM"}, {"measurement": "TGI", "setting": "KM12 colon", "result": "> 100", "unit": "µM"}, {"measurement": "TGI", "setting": "LOX IMVI melanoma", "result": 35.5, "unit": "µM"}, {"measurement": "TGI", "setting": "M14 melanoma", "result": 74.1, "unit": "µM"}, {"measurement": "TGI", "setting": "MALME-3M melanoma", "result": "> 100", "unit": "µM"}, {"measurement": "TGI", "setting": "MCF7 breast", "result": 62, "unit": "µM"}, {"measurement": "TGI", "setting": "MDA-MB-231 breast", "result": 52.6, "unit": "µM"}, {"measurement": "TGI", "setting": "MDA-MB-435", "result": 49.1, "unit": "µM"}, {"measurement": "TGI", "setting": "MDA-N", "result": 70.2, "unit": "µM"}, {"measurement": "TGI", "setting": "MOLT-4 leukemia", "result": "> 100", "unit": "µM"}, {"measurement": "TGI", "setting": "NCI-H226 lung", "result": "> 100", "unit": "µM"}, {"measurement": "TGI", "setting": "NCI-H23 lung", "result": "> 100", "unit": "µM"}, {"measurement": "TGI", "setting": "NCI-H460 lung", "result": "> 100", "unit": "µM"}, {"measurement": "TGI", "setting": "NCI-H522 lung", "result": "> 100", "unit": "µM"}, {"measurement": "TGI", "setting": "NCI/ADR-RES ovarian", "result": 96.1, "unit": "µM"}, {"measurement": "TGI", "setting": "OVCAR-3 ovarian", "result": "> 100", "unit": "µM"}, {"measurement": "TGI", "setting": "OVCAR-4 ovarian", "result": "> 100", "unit": "µM"}, {"measurement": "TGI", "setting": "OVCAR-5 ovarian", "result": "> 100", "unit": "µM"}, {"measurement": "TGI", "setting": "OVCAR-8 ovarian", "result": "> 100", "unit": "µM"}, {"measurement": "TGI", "setting": "PC-3 prostate", "result": "> 100", "unit": "µM"}, {"measurement": "TGI", "setting": "RPMI-8226 leukemia", "result": 86.2, "unit": "µM"}, {"measurement": "TGI", "setting": "RXF 393 renal", "result": 56.3, "unit": "µM"}, {"measurement": "TGI", "setting": "SF-268 CNS", "result": "> 100", "unit": "µM"}, {"measurement": "TGI", "setting": "SF-295 CNS", "result": "> 100", "unit": "µM"}, {"measurement": "TGI", "setting": "SF-539 CNS", "result": 47.3, "unit": "µM"}, {"measurement": "TGI", "setting": "SK-MEL-2 melanoma", "result": 42.8, "unit": "µM"}, {"measurement": "TGI", "setting": "SK-MEL-28 melanoma", "result": "> 100", "unit": "µM"}, {"measurement": "TGI", "setting": "SK-MEL-5 melanoma", "result": 32, "unit": "µM"}, {"measurement": "TGI", "setting": "SK-OV-3 ovarian", "result": "> 100", "unit": "µM"}, {"measurement": "TGI", "setting": "SN12C renal", "result": 66.6, "unit": "µM"}, {"measurement": "TGI", "setting": "SNB-19 CNS", "result": "> 100", "unit": "µM"}, {"measurement": "TGI", "setting": "SNB-75 CNS", "result": 69.7, "unit": "µM"}, {"measurement": "TGI", "setting": "SR leukemia", "result": 49.2, "unit": "µM"}, {"measurement": "TGI", "setting": "SW-620 colon", "result": "> 100", "unit": "µM"}, {"measurement": "TGI", "setting": "T-47D breast", "result": "> 100", "unit": "µM"}, {"measurement": "TGI", "setting": "TK-10 renal", "result": 88.6, "unit": "µM"}, {"measurement": "TGI", "setting": "U251 CNS", "result": "> 100", "unit": "µM"}, {"measurement": "TGI", "setting": "UACC-257 melanoma", "result": "> 100", "unit": "µM"}, {"measurement": "TGI", "setting": "UACC-62 melanoma", "result": "> 100", "unit": "µM"}, {"measurement": "TGI", "setting": "UO-31 renal", "result": "> 100", "unit": "µM"}]}]}
